According to patent US9247759B2, “Identification of human T2R receptors that respond to bitter compounds that elicit the bitter taste in compositions, and the use thereof in assays to identify compounds that inhibit (block) bitter taste in compositions and use thereof” (SENOMYX, INC., priority 2007, dated 2016):
Like-named read-outs stand apart in the source and are kept apart here.

Molecular target: hT2R8 (Homo sapiens (Human), UniProt Q9NYW2)
Experiment: hT2R8 antagonist high-throughput FLIPR assay, stable cell line with G16g44, agonist andrographolide
Assay type: cell-based
From the text: After a ligand is identified for a particular hT2R, a HEK293 cell line stably expressing both the hT2R and G16gust44 are generated, facilitating future screening assays to identify other ligands that activate the particular hT2R or which modulate (block or enhance) the activation of this hT2R by another bitter ligand such as a bitter compound contained in coffee. This avoids the need for transient transfection.
(§1) To identify antagonists, cell lines stably expressing hT2R8 and hT2R14, respectively, together with the promiscuous chimeric G16g44 protein were generated as described in previous patent applications. A high-throughput assay was established using the stable cell lines and FLIPR (Fluorescent Imaging Plate Reader). An agonist of hT2R8 or hT2R14 was used to activate the receptors up to 70-80% of their respective maximal activity. For hT2R8, the agonist used was andrographolide (200 λM); for hT2R14, it was aristolochic acid (3 μM). To identify antagonists, compounds with diverse chemical structures were added together with the agonist.
as §1, with “hT2R8” for “hT2R8 and hT2R14, respectively,”, “hT2R8” for “hT2R8 or hT2R14”, “(200” for “(200 λM); for hT2R14, it was aristolochic acid (3”

[1] = table after Example 10-97, read-out: hT2R8 IC50
[2] = table after Example 12-37, read-out: hT2R8 IC50
[3] = read-out: IC50 on hT2R8 bitter receptor
[4] = unit uM, read-out: IC50 on hT2R08 bitter receptor

hT2R8, sequence (Q9NYW2 whole entry): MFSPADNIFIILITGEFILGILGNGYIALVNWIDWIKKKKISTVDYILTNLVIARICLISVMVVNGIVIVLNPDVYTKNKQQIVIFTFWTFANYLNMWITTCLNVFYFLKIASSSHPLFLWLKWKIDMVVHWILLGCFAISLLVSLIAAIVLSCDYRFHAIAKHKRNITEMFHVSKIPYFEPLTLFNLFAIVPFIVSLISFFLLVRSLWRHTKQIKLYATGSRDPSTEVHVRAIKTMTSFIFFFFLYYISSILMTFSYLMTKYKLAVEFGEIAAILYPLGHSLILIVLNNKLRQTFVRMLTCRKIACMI

Row | Structure (SMILES) | IC50 [1] [µM] | IC50 [3] [µM] | also measured
1 | Cc1noc(C)c1Cn1cc(N2C(=O)N[C@@H](Cc3ccccc3)C2=O)cn1 [Example 10-3, (S)-5-benzyl-3-(1-((3,5-dimethylisoxazol-4-yl)methyl)-1H-pyrazol-4-yl)imidazolidine-2,4-dione] | 0.113 | – | –
2 | Cc1noc(C)c1Cn1cc(N2C(=O)N(CCO)C(C)(C)C2=O)cn1 [Example 12-77, 3-(1-((3,5-dimethylisoxazol-4-yl)methyl)-1H-pyrazol-4-yl)-1-(2-hydroxyethyl)-5,5-dimethylimidazolidine-2,4-dione] | – | – | IC50 [2]: 0.56 µM
3 | Cc1noc(C)c1Cn1cc(N2C(=O)N(Cc3cccc(O)c3O)C(C)(C)C2=O)cn1 [Example 12-43, 1-(2,3-dihydroxybenzyl)-3-(1-((3,5-dimethylisoxazol-4-yl)methyl)-1H-pyrazol-4-yl)-5,5-dimethylimidazolidine-2,4-dione] | – | – | IC50 [2]: 0.1 µM
4 | COc1cccc(CC(=O)Nc2cnn(Cc3c(C)noc3C)c2)c1OC [Example 4-31, 2-(2,3-dimethoxyphenyl)-N-(1-((3,5-dimethylisoxazol-4-yl)methyl)-1H-pyrazol-4-yl)acetamide] | – | – | IC50 (Table A, read-out: hT2R8 IC50): 0.8 µM
5 | Cc1noc(C)c1Cn1cc(N2C(=O)NC(Cc3ccc(O)cc3)C2=O)cn1 (centres unmarked) [Example 10-59, 3-(1-((3,5-dimethylisoxazol-4-yl)methyl)-1H-pyrazol-4-yl)-5-(4-hydroxybenzyl)imidazolidine-2,4-dione] | 0.327 | 0.33 | –
6 | Cc1noc(C)c1Cn1cc(NC(=O)c2cccc(Cl)c2)cn1 [Example 4-80, 3-chloro-N-(1-((3,5-dimethylisoxazol-4-yl)methyl)-1H-pyrazol-4-yl)benzamide] | – | – | IC50 (Table A, read-out: hT2R8 IC50): 0.9 µM
7 | Cc1noc(C)c1Cn1cc(N2C(=O)CN(CCc3ccccc3F)C2=O)cn1 [Example 10-83, 3-(1-((3,5-dimethylisoxazol-4-yl)methyl)-1H-pyrazol-4-yl)-1-(2-fluorophenethyl)imidazolidine-2,4-dione] | 0.442 | 0.13 | –
8 | COc1ccc(CN2CC(=O)N(c3cnn(Cc4c(C)noc4C)c3)C2=O)cc1OC [Example 10-35, 1-(3,4-dimethoxybenzyl)-3-(1-((3,5-dimethylisoxazol-4-yl)methyl)-1H-pyrazol-4-yl)imidazolidine-2,4-dione] | 0.051 | – | IC50 [4]: 0.06 µM
9 | COc1cc(OC)cc(C(=O)Nc2cnn(Cc3c(C)noc3C)c2)c1 [Example 4-18, N-(1-((3,5-dimethylisoxazol-4-yl)methyl)-1H-pyrazol-4-yl)-3,5-dimethoxybenzamide] | – | – | IC50 (Table A, read-out: hT2R8 IC50): 0.28 µM
10 | Cc1ccccc1CN1CC(=O)N(c2cnn(Cc3c(C)noc3C)c2)C1=O [Example 10-20, 3-(1-((3,5-dimethylisoxazol-4-yl)methyl)-1H-pyrazol-4-yl)-1-(2-methylbenzyl)imidazolidine-2,4-dione] | 0.133 | – | IC50 [4]: 0.1 µM
11 | COc1ccc(CCN2CC(=O)N(c3cnn(Cc4c(C)noc4C)c3)C2=O)cc1OC [Example 10-87, 1-(3,4-dimethoxyphenethyl)-3-(1-((3,5-dimethylisoxazol-4-yl)methyl)-1H-pyrazol-4-yl)imidazolidine-2,4-dione] | 0.137 | 0.26 | –
12 | Cc1noc(C)c1Cn1cc(N2C(=O)N(Cc3ccc(F)cc3)C(C)(C)C2=O)cn1 [Example 12-29, 3-(1-((3,5-dimethylisoxazol-4-yl)methyl)-1H-pyrazol-4-yl)-1-(4-fluorobenzyl)-5,5-dimethylimidazolidine-2,4-dione] | – | 0.08 | –
13 | COc1ccc(CCN2CC(=O)N(c3cnn(Cc4c(C)noc4C)c3)C2=O)cc1 [Example 10-79, 3-(1-((3,5-dimethylisoxazol-4-yl)methyl)-1H-pyrazol-4-yl)-1-(4-methoxyphenethyl)imidazolidine-2,4-dione] | 0.044 | 0.04 | –
14 | Cc1noc(C)c1Cn1cc(N2C(=O)[C@H](C)N(Cc3ccccc3)C2=O)cn1 [Example 12-11, (S)-1-benzyl-3-(1-((3,5-dimethylisoxazol-4-yl)methyl)-1H-pyrazol-4-yl)-5-methylimidazolidine-2,4-dione] | – | 0.01 | –
15 | Cc1noc(C)c1Cn1cc(N2C(=O)N(CCc3cccc(F)c3)C(C)(C)C2=O)cn1 [Example 12-50, 3-(1-((3,5-dimethylisoxazol-4-yl)methyl)-1H-pyrazol-4-yl)-1-(3-fluorophenethyl)-5,5-dimethylimidazolidine-2,4-dione] | – | – | IC50 [2]: 0.15 µM
16 | COc1ccc(OC)c(NC(=S)Nc2cnn(Cc3c(C)noc3C)c2)c1 [Example 4-113, 1-(2,5-dimethoxyphenyl)-3-(1-((3,5-dimethylisoxazol-4-yl)methyl)-1H-pyrazol-4-yl)thiourea] | – | – | IC50 (Table A, read-out: hT2R8 IC50): 5.24 µM
17 | Cc1noc(C)c1Cn1cc(N2C(=O)N(Cc3cccnc3)C(C)(C)C2=O)cn1 [Example 12-36, 3-(1-((3,5-dimethylisoxazol-4-yl)methyl)-1H-pyrazol-4-yl)-5,5-dimethyl-1-(pyridin-3-ylmethyl)imidazolidine-2,4-dione] | – | 0.22 | –
18 | Cc1noc(C)c1Cn1cc(N2C(=O)N(Cc3cc(C)n(C)n3)C(C)(C)C2=O)cn1 [Example 12-25, 1-((1,5-dimethyl-1H-pyrazol-3-yl)methyl)-3-(1-((3,5-dimethylisoxazol-4-yl)methyl)-1H-pyrazol-4-yl)-5,5-dimethylimidazolidine-2,4-dione] | – | 0.16 | –
19 | Cc1noc(C)c1Cn1cc(N2C(=O)CN(Cc3cccc(CO)c3)C2=O)cn1 [Example 10-33, 3-(1-((3,5-dimethylisoxazol-4-yl)methyl)-1H-pyrazol-4-yl)-1-(3-(hydroxymethyl)benzyl)imidazolidine-2,4-dione] | 0.322 | – | IC50 [4]: 0.3 µM
20 | Cc1ccc(CN2CC(=O)N(c3cnn(Cc4c(C)noc4C)c3)C2=O)cc1 [Example 10-30, 3-(1-((3,5-dimethylisoxazol-4-yl)methyl)-1H-pyrazol-4-yl)-1-(4-methylbenzyl)imidazolidine-2,4-dione] | 0.065 | – | IC50 [4]: 0.06 µM
21 | Cc1noc(C)c1Cn1cc(N2C(=O)CN(Cc3ccc(F)cc3)C2=O)cn1 [Example 10-31, 3-(1-((3,5-dimethylisoxazol-4-yl)methyl)-1H-pyrazol-4-yl)-1-(4-fluorobenzyl)imidazolidine-2,4-dione] | 0.045 | – | IC50 [4]: 0.05 µM
22 | Cc1noc(C)c1Cn1cc(N2C(=O)N(CCc3ccccc3)C(C)(C)C2=O)cn1 [Example 12-56, 3-(1-((3,5-dimethylisoxazol-4-yl)methyl)-1H-pyrazol-4-yl)-5,5-dimethyl-1-phenethylimidazolidine-2,4-dione] | – | – | IC50 [2]: 0.23 µM
23 | Cc1noc(C)c1Cn1cc(N2C(=O)N(CCc3cc(F)cc(F)c3)C(C)(C)C2=O)cn1 [Example 12-70, 1-(3,5-difluorophenethyl)-3-(1-((3,5-dimethylisoxazol-4-yl)methyl)-1H-pyrazol-4-yl)-5,5-dimethylimidazolidine-2,4-dione] | – | – | IC50 [2]: 0.4 µM
24 | Cc1noc(C)c1Cn1cc(NC(=S)NCc2ccccc2)cn1 [Example 4-110, 1-benzyl-3-(1-((3,5-dimethylisoxazol-4-yl)methyl)-1H-pyrazol-4-yl)thiourea] | – | – | IC50 (Table A, read-out: hT2R8 IC50): 1.1 µM
25 | Cc1noc(C)c1Cn1cc(NCc2ccccc2C#N)cn1 [Example 9-2, 2-((1-((3,5-dimethylisoxazol-4-yl)methyl)-1H-pyrazol-4-ylamino)methyl)benzonitrile] | – | > 30 | –
26 | Cc1noc(C)c1Cn1cc(N2C(=O)N(CCCc3ccccc3)C(C)(C)C2=O)cn1 [Example 12-78, 3-(1-((3,5-dimethylisoxazol-4-yl)methyl)-1H-pyrazol-4-yl)-5,5-dimethyl-1-(3-phenylpropyl)imidazolidine-2,4-dione] | – | – | IC50 [2]: 0.58 µM
